In patent US6673566B1 (priority 2002, dated 2004):
Entries after “also recorded” stand apart in the source; their conditions may differ.

Key:
[1] = tested on: white-tailed deer adherent peripheral blood mononuclear cells; assay: Nitrite production (Griess reaction) by white-tailed deer monocyte-derived macrophages stimulated with M. haemolytica LPS; format: cell-based; conditions: cells stimulated with LPS in the presence of L-NMMA (1.15 mM)
Protocol: Monocytes were isolated from buffy coat fractions of peripheral blood of non-infected deer by adherence in 25 cm^2 flasks at 37° C. for 1 hr. Cells were cultured for 2 wk at 37° C. with 5% CO2 in RPMI 1640 (Gibco, Invitrogen Life Technologies, Frederick, Md., USA) supplemented with L-glutamine, penicillin, streptomycin, 2-ME, 10% heat-inactivated fetal calf serum, and 10% heat-inactivated white-tailed deer serum. Medium was changed every 3-4 days during the culture period. […]
Nitrite is the stable oxidation product of NO and the amount of nitrite within culture supernatants is indicative of the amount of NO produced by cells in culture. Nitrite was measured using the Griess reaction (Rajaraman et al., 1998, Effect of vitamins A and E on nitric oxide production by blood mononuclear leukocytes from neonatal calves fed milk replacer, Journal of Dairy Science, 81:3,278-3,285) performed in 96-well microtiter plates (Immunolon 2, Dynatech Laboratories, Inc., Chantilly, Va., USA). […] Absorbencies of test and standard samples at 550 nm were measured using an automated ELISA plate reader (Molecular Devices, Menlo Park, Calif., USA). […]
Data were analyzed by one-way analysis of variance followed by Tukey-Kramer multiple comparisons test. […]

[2] = tested on: PBMC from Mycobacterium bovis-infected white-tailed deer; format: cell-based

Compound: CNC(=N)NCCC[C@H](N)C(=O)O [L-NMMA, N^G-monomethyl-L-arginine]
- Nitrite levels versus non-stimulated cultures [1]: did not differ
- Effect of L-NMMA on antigen-stimulated nitrite production [2]: inhibited; also recorded: ablated this response; also recorded: abrogated
